Counter-ions that a name gives are not always drawn. Marks after values point to notes of the source that are not given here.
Columns and labels:
[1] = Body weight change of loperamide-induced constipated rats
Description: (§1) 6-week-old rats (SLC, Japan) were used for an experiment after acclimatization to new environments for 7 days. Five rats were raised per cage at 20-25° C. and 45-50% humidity. The light-dark cycle was 12 hr: 12 hr, and water and food were freely available. The rats were classified into six groups (nine rats per group, a total of 54 rats) based on the body weight thereof. Specific groups are as follows:
(§2) Administration of Test Material Magnesium hydroxide (Mg(OH)2; MagMill™) was purchased from Samnam Pharm. In order to protect test materials from light and moisture, the test materials were stored in a refrigerator at 4° C. The mineral water was orally administered at 10 ml/kg for each time, at an interval of 6 hours (30 ml/kg/day), three times a day, for a total of six days. The administration for each time was conducted 1 hour after administration of loperamide 3 mg/kg. Magnesium hydroxide was mixed with distilled water, and the mixture was orally administered once a day for a total of six days, and the same amount of distilled water was orally administered at the time of second and third administrations. Distilled water, instead of mineral water, was administered to groups 1 and 2.
(§3) In order to induce constipation, loperamide hydrochloride (Sigma, MO, U.S.) 3 mg/kg was mixed with saline water 5 ml/kg, and the mixture was orally administered to animals 1 hour before administration of the test material, once a day, for a total of six days. Detailed methods are disclosed in Bustos et al. Acta Gastroenterol Latinoam, 1991; 21:3-9 and Wintola et al. BMC Gastroenterol, 2010; 10:95, which are incorporated by reference into the present specification.
Body weight was measured once per day 1 day before the test material administration, at the day of the initiation of administration, and 1, 2, 3, 4, and 5 days after the initiation of administration, to verify the body weight change according to administration of the test material. All the animals were fasted (excluding water) for 5 days after the initiation of administration for one overnight in order to decrease the body weight difference due to feed ingestion and measure the intestinal charcoal transit ratio. In addition, the body weight gain was calculated by equation 1.
Body weight gain (g)=body weight at 6th administration last day−body weight at the day of the initiation of administration. [Equation 1]

[2] = test system: loperamide-induced constipated rats; test: Fecal parameters in loperamide-induced constipated rats; format: in vivo; conditions: for Fecal dry-weights / Fecal wet-weights / Numbers of fecal pellets / Water contents of fecal pellets: collected at 4th administration day (24 hrs), mean ± S.D. of nine rats
Description: as §1, §2, §3
The fecal pellets of each rat were collected 24 hours after the 4th administration day. The total number, wet weight, and water content of the fecal pellets were checked. The water content was calculated by equation 2 below:
Water content of fecal pellets (%)=((wet weight of fecal pellets−dry weight of fecal pellets)/wet weight of fecal pellets)×100 [Equation 2]
(§4) Multiple comparison tests of the groups with different dosages were conducted. Variance homogeneity was examined using the Levene test (Levene A, Clin Otalary, 1981; 6:145-51). […] In cases where significant deviations from variance homogeneity were observed by the Levene test, the non-parametric comparison test and Kruskal-Wallis H test were conducted. When a significant difference was observed by the Kruskal-Wallis H test, the Mann-Whitney U (MW) test was used to determine the significance of specific pairwise comparisons. Statistical analyses were conducted using SPSS (Release 14K, SPSS Inc. USA; Ludbrook, Clin Exp Pharmacol Physiol, 1997; 24:294-6). In addition, the percentage change between the normal group and loperamide control was calculated to identify the severity of induced constipation, and then, in order to evaluate the efficacy of the test materials, the percent change compared with the loperamide control was calculated by equations 4 and 5.
(§5) Percent change compared with normal group (%)=(((normal group data)−(loperamide control data)/normal group data)×100) [Equation 4]
(§6) Percentage change (%) compared with loperamide control=(((loperamide control data−test material administered rat data)/(loperamide control data))×100) [Equation 5]

[3] = test system: loperamide-induced constipated rats; test: Remnant fecal pellets in the colon of loperamide-induced constipated rats; format: in vivo
Description: as §1, §2, §3
The total number and mean thickness (short axis) of remnant fecal pellets in the colonic lumen were measured when the gastrointestinal charcoal transit ratio was measured.
as §4, §5, §6

[4] = test system: loperamide-induced constipated rats; test: Gastrointestinal charcoal transit ratio in loperamide-induced constipated rats; format: in vivo; conditions: for Gastrointestinal charcoal transit ratio / Length of charcoal meal transferred: during 30 min after charcoal meal, after 6th administration, mean ± S.D. of nine rats
Description: as §1, §2, §3
The gastrointestinal propulsion of the charcoal meal was checked by the method disclosed in Sagar et al. BMC Complement Altern Med, 2005; 5:18, with minor modification. Prior to the experiment, animals were fasted for 18 hours (water supplied). Ten minutes after the 6th administration (last) of the test material, animals of each group were fed with 1 ml of charcoal meal (3% suspension of activated charcoal in 0.5% aqueous methylcellulose). Thirty minutes after charcoal meal ingestion, the animals of each group were sacrificed, and the total small intestine length (from pyloric sphincter to appendix) and the charcoal meal transit distance were measured. The gastrointestinal charcoal transit ratio was calculated by equation 3 below:
Charcoal transit ratio (%)=(([…])/total small intestine length)×100 [Equation 3]
as §4, §5, §6

[5] = test system: loperamide-induced constipated rats; test: Histomorphometry of the colon and remnant fecal pellets in loperamide-induced constipated rats; format: in vivo; conditions: for Colon mucosa thicknesses / Fecal pellet surface mucous thickness / Mucous producing cell numbers: at sacrifice, 6 days of administration, mean ± S.D. of nine rats; for Mucous producing cell numbers: colonic mucosa
Description: as §1, §2, §3
Histopathological assessment of the colonic mucosa and remnant fecal pellets in the colonic lumen was conducted by the method of Wu et al. J Ethnopharmacol, 2011; 134:406-13, with minor modification. In short, the distal colon fragment containing one fecal pellet was isolated using ligatures, removed, and immediately fixed with 10% formaldehyde (when the gastrointestinal charcoal transit ratio was measured). The fixed tissue segments were paraffin-embedded, and sliced into 3 μm-thickness cross sections. The sliced samples were stained with Alcian blue at pH 2.5. Five tissue segments per group were prepared, and histological profiles thereof were interpreted. The histopathologist was blinded to the group distributions at the time of analysis.
Histomorphometry: The mean thickness of the mucosal layers at the fecal surface (μm/fecal pellet), mucous-producing cell number (cells/mm^2) per unit area in the colonic mucosa, and the colonic mucosal thickness (μm/colon) were measured by using an automated image analyzer (DMI-300, DMI, Korea) under a light microscope.
as §4, §5

[6] = percent change compared with the loperamide control
[7] = at sacrifice after 6th administration, 18 h fasting, mean ± S.D. of nine rats
[8] = loperamide control 3 mg/kg, percent change compared with the normal group

[Mg+2].[OH-].[OH-] [Mg(OH)2, Magnesium hydroxide]
Body weights at Last (6th) administration [B] ([1]; after overnight fasting, loperamide 3 mg/kg, Mg(OH)2 200 mg/kg/day or mineral water 30 ml/kg/day oral, mean ± S.D. of nine rats): 241.67 ± 10.36 g
Body weight gains [B − A] ([1]; last (6th) administration minus initiation of administration, mean ± S.D. of nine rats): 22.44 ± 4.19 g
change in weight gain during the administration period [1, 6]: 8.60%
Body weights at Initiation of administration [A] ([1]; rats given loperamide 3 mg/kg, Mg(OH)2 200 mg/kg/day or mineral water 30 ml/kg/day oral, 6 days, mean ± S.D. of nine rats): 219.22 ± 8.79 g
Body weights at Fifth administration ([1]; rats given loperamide 3 mg/kg, Mg(OH)2 200 mg/kg/day or mineral water 30 ml/kg/day oral, mean ± S.D. of nine rats): 260.33 ± 12.38 g
Fecal dry-weights [2]: 4.21 ± 0.55^a g/24 hr/rat
Fecal wet-weights [2]: 9.18 ± 0.88^dg g/24 hr/rat
Numbers of fecal pellets [2]: 52.33 ± 4.21^ef
Water contents of fecal pellets [2]: 53.50 ± 9.99^c %
change in number of fecal pellets for 24 hours, 4 days after administration [2, 6]: 17.94%
change in water content in fecal pellets for 24 hours, 4 days after administration [2, 6]: 18.12%
Remnant fecal pellets in the colon: Numbers [3, 7]: 1.89 ± 0.93^c
change in mean diameter of remnant fecal pellets in the colon [3, 6]: −18.76%
change in number of remnant fecal pellets in the colon [3, 6]: −51.43%
Remnant fecal pellets in the colon: Mean thicknesses ([3]; short axis, at sacrifice after 6th administration, 18 h fasting, mean ± S.D. of nine rats): 5.26 ± 0.38^c μm
Gastrointestinal charcoal transit ratio [4]: 66.76 ± 3.47^ac %
Length of charcoal meal transferred [4]: 83.33 ± 6.06^a cm
change in intestinal charcoal transit ratio [4, 6]: 9.10%
Colon mucosa thicknesses [5]: 164.16 ± 22.31^cd μm
Fecal pellet surface mucous thickness [5]: 24.33 ± 7.82^ab μm
Mucous producing cell numbers [5]: 313.56 ± 42.27^cd cells/mm^2
change in colon mucosa thickness [5, 6]: 57.27%
change in fecal pellet surface mucosal thickness in the colon [5, 6]: 316.22%
change in mucous-producing cell number per unit area in the colonic mucosa [5, 6]: 75.17%

CN(C)C(=O)C(CCN1CCC(O)(c2ccc(Cl)cc2)CC1)(c1ccccc1)c1ccccc1 [Loperamide, loperamide hydrochloride]
significant changes in body weight and weight gain ([1]; compared with the normal group and loperamide control): not observed
change in weight gain during the administration period ([1]; loperamide control 3 mg/kg, percent change compared with normal group): −7.92%
Fecal dry-weights [2]: 4.17 ± 0.63^a g/24 hr/rat
Fecal wet-weights [2]: 7.65 ± 1.25^d g/24 hr/rat
Numbers of fecal pellets [2]: 45.22 ± 4.97^d
Water contents of fecal pellets [2]: 45.29 ± 4.06^a %
change in number of fecal pellets for 24 hours, 4 days after administration [2, 8]: −27.45%
change in water content in fecal pellets for 24 hours, 4 days after administration [2, 8]: −17.47%
Remnant fecal pellets in the colon: Numbers [3, 7]: 3.89 ± 1.05^a
change in mean diameter of remnant fecal pellets in the colon [3, 8]: 57.96%
change in number of remnant fecal pellets in the colon [3, 8]: 118.75%
Gastrointestinal charcoal transit ratio [4]: 61.20 ± 5.98^a %
Length of charcoal meal transferred [4]: 74.21 ± 6.41^a cm
change in intestinal charcoal transit ratio [4, 8]: −20.05%
Colon mucosa thicknesses [5]: 104.38 ± 10.79^c μm
Fecal pellet surface mucous thickness [5]: 5.84 ± 2.53^a μm
Mucous producing cell numbers [5]: 179.00 ± 46.31^c cells/mm^2
change in colon mucosa thickness [5, 8]: −70.97%
change in fecal pellet surface mucosal thickness in the colon [5, 8]: −89.93%
change in mucous-producing cell number per unit area in the colonic mucosa [5, 8]: −72.40%
